From US20090186929A1, “Method and agent for inducing apoptosis/cell death in leukemia cells” (U.S. DEPARTMENT OF VETERANS AFFAIRS, priority 2003, published 2009)
Structures can show the parent of a compound that is named as a salt. Where two headings read alike, the source gives them in different places.

What was measured:
[1] = molecular target: T1, purified human NOS1 (Homo sapiens, UniProt P29475); test: Inhibition of purified NOS1 enzyme activity; assay type: biochemical; details: mean ± SEM, N = 3
T1 construct: determined using purified recombinant full-length human NOS1 and NOS2
T1 sequence (P29475 whole entry): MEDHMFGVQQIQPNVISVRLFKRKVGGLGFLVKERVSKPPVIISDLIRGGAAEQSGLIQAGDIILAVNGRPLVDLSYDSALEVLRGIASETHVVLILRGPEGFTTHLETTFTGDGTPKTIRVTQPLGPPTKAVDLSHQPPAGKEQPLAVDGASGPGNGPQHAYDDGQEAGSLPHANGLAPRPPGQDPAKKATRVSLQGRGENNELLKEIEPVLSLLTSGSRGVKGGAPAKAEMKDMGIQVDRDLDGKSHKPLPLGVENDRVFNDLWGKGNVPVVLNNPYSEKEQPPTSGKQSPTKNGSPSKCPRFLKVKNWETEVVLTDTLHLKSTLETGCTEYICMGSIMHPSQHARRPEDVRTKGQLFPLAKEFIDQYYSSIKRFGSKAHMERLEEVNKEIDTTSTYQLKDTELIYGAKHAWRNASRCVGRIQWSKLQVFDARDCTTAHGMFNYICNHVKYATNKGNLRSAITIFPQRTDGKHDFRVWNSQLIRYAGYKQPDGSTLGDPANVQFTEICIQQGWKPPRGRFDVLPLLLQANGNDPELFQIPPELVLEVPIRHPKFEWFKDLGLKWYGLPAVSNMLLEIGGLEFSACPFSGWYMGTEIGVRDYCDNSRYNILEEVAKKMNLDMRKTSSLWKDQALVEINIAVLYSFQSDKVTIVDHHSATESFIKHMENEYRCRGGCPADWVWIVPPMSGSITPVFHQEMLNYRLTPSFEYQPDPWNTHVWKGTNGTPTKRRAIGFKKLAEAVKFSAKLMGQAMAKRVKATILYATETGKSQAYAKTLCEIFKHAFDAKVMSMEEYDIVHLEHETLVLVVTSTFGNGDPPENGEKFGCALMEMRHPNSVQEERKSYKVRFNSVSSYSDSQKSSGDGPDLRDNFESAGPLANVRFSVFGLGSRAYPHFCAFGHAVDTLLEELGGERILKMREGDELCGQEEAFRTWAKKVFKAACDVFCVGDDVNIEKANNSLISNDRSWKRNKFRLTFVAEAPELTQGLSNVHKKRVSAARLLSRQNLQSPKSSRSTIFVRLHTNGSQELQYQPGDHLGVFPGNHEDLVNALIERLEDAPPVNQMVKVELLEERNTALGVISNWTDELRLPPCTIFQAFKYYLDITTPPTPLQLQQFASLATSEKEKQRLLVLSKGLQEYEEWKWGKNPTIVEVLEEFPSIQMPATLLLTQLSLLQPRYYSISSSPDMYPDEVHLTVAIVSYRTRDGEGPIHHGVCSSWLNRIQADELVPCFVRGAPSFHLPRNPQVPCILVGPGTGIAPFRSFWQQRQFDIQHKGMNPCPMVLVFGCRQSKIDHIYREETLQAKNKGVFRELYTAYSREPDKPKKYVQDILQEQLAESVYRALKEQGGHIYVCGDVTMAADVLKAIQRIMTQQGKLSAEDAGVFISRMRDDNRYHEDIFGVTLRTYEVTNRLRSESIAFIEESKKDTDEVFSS
Procedure: (§1) The NOS1 and NOS2 IC50's and Kd's for each NOS inhibitor were determined using purified recombinant full-length human NOS1 and NOS2. The cLogP value for each NOS inhibitor was determined using the CLOGP computer program (BioByte, Claremont, Calif.). […] Linear regression was used to examine the correlation between the IC50, Kd and cLogP values and ED50 values.
(§2) We determined the dissociation constant for NOS inhibitor binding (Kd) to purified recombinant and NOS2.

[2] = molecular target: T2, purified human NOS2 (Homo sapiens, UniProt P35228); test: Inhibition of purified NOS2 enzyme activity; assay type: biochemical; details: mean ± SEM, N = 3
T2 construct: determined using purified recombinant full-length human NOS1 and NOS2
T2 sequence (P35228 whole entry): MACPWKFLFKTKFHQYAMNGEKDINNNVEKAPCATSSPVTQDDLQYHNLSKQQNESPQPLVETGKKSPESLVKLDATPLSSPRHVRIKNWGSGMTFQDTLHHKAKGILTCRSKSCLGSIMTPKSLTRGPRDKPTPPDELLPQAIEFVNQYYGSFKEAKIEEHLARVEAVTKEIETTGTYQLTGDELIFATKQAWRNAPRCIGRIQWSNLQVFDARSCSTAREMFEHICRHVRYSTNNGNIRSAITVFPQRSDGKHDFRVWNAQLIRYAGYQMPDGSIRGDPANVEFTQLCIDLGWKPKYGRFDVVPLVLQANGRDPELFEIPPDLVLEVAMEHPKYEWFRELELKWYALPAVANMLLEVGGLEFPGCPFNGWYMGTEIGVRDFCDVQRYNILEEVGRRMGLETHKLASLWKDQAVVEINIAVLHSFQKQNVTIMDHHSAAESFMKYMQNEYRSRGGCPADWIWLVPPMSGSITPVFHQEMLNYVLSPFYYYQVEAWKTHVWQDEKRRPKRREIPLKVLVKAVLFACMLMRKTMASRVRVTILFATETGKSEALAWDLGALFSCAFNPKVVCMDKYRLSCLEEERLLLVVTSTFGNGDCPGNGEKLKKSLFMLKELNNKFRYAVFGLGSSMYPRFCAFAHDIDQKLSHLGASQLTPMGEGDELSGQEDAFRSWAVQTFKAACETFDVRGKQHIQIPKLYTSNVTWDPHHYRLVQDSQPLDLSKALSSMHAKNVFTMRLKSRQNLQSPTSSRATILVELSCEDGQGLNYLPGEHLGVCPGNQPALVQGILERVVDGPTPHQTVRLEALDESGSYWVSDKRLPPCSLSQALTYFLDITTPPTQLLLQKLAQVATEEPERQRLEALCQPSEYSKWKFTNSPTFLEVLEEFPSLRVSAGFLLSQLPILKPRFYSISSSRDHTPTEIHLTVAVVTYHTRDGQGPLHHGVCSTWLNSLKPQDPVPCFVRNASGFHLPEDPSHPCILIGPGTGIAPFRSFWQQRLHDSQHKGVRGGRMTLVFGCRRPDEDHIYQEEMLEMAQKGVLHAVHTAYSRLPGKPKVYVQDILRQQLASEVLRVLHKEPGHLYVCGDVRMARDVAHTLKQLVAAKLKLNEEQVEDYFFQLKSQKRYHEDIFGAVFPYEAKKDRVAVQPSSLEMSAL
Procedure: as §1, §2

[3] = system: CLL cells; test: Cytotoxicity of NOS inhibitors for CLL cells in vitro (MTS assay); details: for EC50: read-out: Mean ED50 ± S.E.M. (CLL cell cytotoxicity)
From the text: We worked to optimize the culture of CLL cells (Reference 86). […] These were all tested with and without albumin, fetal bovine serum, human serum, glutamine, insulin, transferrin, selenium, and mercaptoethanol.
Toxicity could be detected by disappearance of cells from the culture (reduction in overall cell number), uptake of trypan blue, propidium iodide uptake (flow cytometry), MTS (4,5-dimethylthiazol-2-yl)-5-(3-carboxymethoxyphenyl)-2-(4-sulfophenyl)-2H-tetrazolium, inner salt) assay (cellular respiration), and several parameters of apoptosis [annexin V assay, DNA content […], and TUNEL assay].

[4] = system: freshly-isolated CLL cells; test: Exogenous NO donors and drugs on freshly-isolated CLL cells (apoptosis and death); assay type: cell-based, human; details: for NO / DETA-NO interaction with the agent's activity on CLL cells: combination of the agent with NO donor
From the text: We next wanted to examine CLL cells. These malignant cells differ in many ways from ANLL and normal hematopoietic. In addition to their different lineage, they are unique in that they have a very low […], exist primary in the G0 phase of the cell cycle, and have defective apoptosis.

[5] = 50 mg/kg in mice; cited from earlier work
[6] = system: CLL cells; test: CLL cell apoptosis by Annexin V binding; assay type: cell-based, human
Procedure: Annexin V binding to CLL cells increased after CLL cell co-culture for 2-6 h.

[7] = system: CLL cell caspase-3; test: CLL cell caspase-3 enzyme activity after culture with AR-R17477; assay type: cell-based, human; details: for Mean caspase-3 activity: 4 h culture, N = 3
[8] = system: HL-60 and U937 cells; test: NO donor inhibition of leukemia cell and colony growth; assay type: cell-based, human
From the text: To more closely examine the mechanism of toxicity for myeloid leukemia cells, we did work to determine whether the rate of NO delivery affected its growth inhibition of acute nonlymphocytic leukemia cells. We also wanted to determine whether the NO inhibition of cell growth is associated induction of apoptosis. We treated HL-60 and U937 cells with three compounds that generate the same amount of NO but different rates. […] Furthermore, NO-induced growth inhibition was associated with apoptosis in a rate and concentration-dependent fashion (Reference 39).

[9] = molecular target: T3, purified recombinant rat NOS1 oxygenase domain (Rattus norvegicus, UniProt P29476); test: NOS inhibitor binding (Kd) to NOS1
T3 construct: purified recombinant rat NOS1 oxygenase domain
T3 sequence (P29476 1-720 limits assumed): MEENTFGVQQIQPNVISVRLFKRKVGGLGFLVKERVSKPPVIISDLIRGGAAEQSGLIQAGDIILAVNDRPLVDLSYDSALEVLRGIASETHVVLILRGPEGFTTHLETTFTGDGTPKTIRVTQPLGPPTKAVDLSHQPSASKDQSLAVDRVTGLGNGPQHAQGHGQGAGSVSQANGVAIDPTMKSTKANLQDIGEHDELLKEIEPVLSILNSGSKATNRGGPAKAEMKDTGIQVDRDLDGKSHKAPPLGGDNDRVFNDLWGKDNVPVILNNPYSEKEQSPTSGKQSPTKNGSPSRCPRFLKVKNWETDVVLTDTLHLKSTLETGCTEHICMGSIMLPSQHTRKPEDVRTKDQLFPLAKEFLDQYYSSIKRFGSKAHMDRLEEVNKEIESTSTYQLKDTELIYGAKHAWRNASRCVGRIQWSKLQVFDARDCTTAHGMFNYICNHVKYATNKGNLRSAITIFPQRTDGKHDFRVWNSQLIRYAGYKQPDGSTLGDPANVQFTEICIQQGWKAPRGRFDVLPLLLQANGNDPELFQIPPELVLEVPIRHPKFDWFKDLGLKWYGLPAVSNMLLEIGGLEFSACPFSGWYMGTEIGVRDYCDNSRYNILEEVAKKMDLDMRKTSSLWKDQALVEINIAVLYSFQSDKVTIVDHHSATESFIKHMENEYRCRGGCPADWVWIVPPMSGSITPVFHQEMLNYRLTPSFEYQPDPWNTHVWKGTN

[10] = molecular target: T4, purified recombinant human NOS2 oxygenase domain (Homo sapiens, UniProt P35228); test: NOS inhibitor binding (Kd) to NOS2
T4 construct: purified recombinant human NOS2 oxygenase domain
T4 sequence (P35228 1-504 limits assumed): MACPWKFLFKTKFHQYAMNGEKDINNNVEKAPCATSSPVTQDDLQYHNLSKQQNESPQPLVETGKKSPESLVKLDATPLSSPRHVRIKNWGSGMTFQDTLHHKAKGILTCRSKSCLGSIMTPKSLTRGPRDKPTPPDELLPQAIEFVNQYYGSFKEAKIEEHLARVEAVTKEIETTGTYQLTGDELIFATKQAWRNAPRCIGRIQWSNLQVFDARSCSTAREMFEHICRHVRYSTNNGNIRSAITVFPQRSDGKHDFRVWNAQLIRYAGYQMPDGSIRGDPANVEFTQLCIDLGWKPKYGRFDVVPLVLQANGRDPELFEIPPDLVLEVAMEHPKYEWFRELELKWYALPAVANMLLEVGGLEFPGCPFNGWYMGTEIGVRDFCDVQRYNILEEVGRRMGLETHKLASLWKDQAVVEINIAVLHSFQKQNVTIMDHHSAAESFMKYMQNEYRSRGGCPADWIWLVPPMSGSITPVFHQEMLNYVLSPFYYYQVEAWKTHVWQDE
Procedure: […] The cLogP value for each NOS inhibitor was determined using the CLOGP computer program (BioByte, Claremont, Calif.). […] Linear regression was used to examine the correlation between the IC50, Kd and cLogP values and ED50 values.
as §2

[11] = system: HL-60 myeloblastic leukemia cells; test: NO drugs on growth of HL-60 myeloblastic leukemia cells; assay type: cell-based, human; details: NO delivered from the drug
From the text: While studying NO and macrophages progressed in the late 1980s, we hypothesized that NO produced in the BM (bone marrow) would be a modulator of normal and leukemic hematopoiesis. […] The differentiated cells were vacuolated, and had increased expression of nonspecific esterase, CD11b, and CD14.

[12] = system: normal human BM cells; test: NO drugs on colony formation of normal human BM cells; assay type: cell-based; details: for Development of marrow colonies: methylcellulose with erythropoietin and colony stimulating factors
Procedure: The effects of NO on the growth and differentiation of normal human BM cells were analyzed (Reference 85). We felt that normal hematopoietic cells, like malignant hematopoietic cells, would be affected by NO. […] NO reduced formation of BFU-E (burst forming unit-erythroid), CFU-E, CFU-GM (colony forming unit-granulocyte/macrophage), and CFU-M (colony forming unit-macrophage). […] In retrospect, we think that the increase in CFU-GM by NO from SNP may be due to alterations in apoptosis secondary to changes in bcl-2 or caspases. None of the noted inhibitions were related to cGMP (cyclic-guanosine monophosphate).

[13] = MTS assay, CLL cell samples from different subjects

N=C(N)SCCc1cccc(CCSC(=N)N)c1 [1,3 PB-ITU, S,S′-(1,3-Phenylene-bis(1,2-ethanediyl))bis-isothiourea 2HBr]
IC50 [1]: 4.7 ± 0.8 µM
IC50 [2]: 1.6 ± 0.3 µM
EC50 ([3]; Homo sapiens, CLL cell): 293 ± 26.5 µM

N=C(N)SCCc1ccc(CCSC(=N)N)cc1 [1,4 PB-ITU, S,S′-(1,4-Phenylene-bis(1,2-ethanediyl))bis-isothiourea 2HBr]
EC50 ([3]; Homo sapiens, CLL cell): 321 ± 38.9 µM

O=[N+]([O-])c1cccc2c(Br)n[nH]c12 [3-Bromo-7-NI, 3-Bromo-7-nitroindazole]
EC50 ([3]; Homo sapiens, CLL cell): 225 ± 20 µM

O=c1[nH]cc(F)c(=O)[nH]1 [5-fluorouracil]
NO / DETA-NO interaction with the agent's activity on CLL cells [4]: did not enhance the activity

O=[N+]([O-])c1cccc2cn[nH]c12 [7-NI, 7-Nitroindazole]
IC50 [1]: 72 ± 16 µM
IC50 [2]: 45 ± 5.9 µM
EC50 ([3]; Homo sapiens, CLL cell): 200 ± 29 µM
Effect on anxiety and depression [5]: effective at reducing anxiety and depression
Side effects [5]: mild motor incoordination

COc1nc(N)nc2c1ncn2[C@@H]1O[C@H](CO)[C@@H](O)[C@@H]1O [506U78, 2-amino-9-β-D-6-methoxy araguanine]
NO / DETA-NO interaction with the agent's activity on CLL cells [4]: synergized

CC(=N)NCc1cccc(CN)c1 [1400W, N-(3-(Aminomethyl)benzyl)acetamidine 2HCl]
EC50 ([3]; Homo sapiens, CLL cell): 8240 ± 1880 µM

CC1CCN=C(N)S1 (stereo not shown) [AMT, 2-Amino-5,6-dihydro-6-methyl-4H-1.3-thiazine HCl]
IC50 [1]: 0.092 ± 0.002 µM
IC50 [2]: 0.054 ± 0.001 µM

Cl.Cl.N=C(Nc1ccc(CCNCc2cccc(Cl)c2)cc1)c1cccs1 [AR-R17477, N-(4-(2-((3-Chlorophenylmethyl)amino)ethyl)phenyl)-2-thiophecarboxamidine dihydrochloride]
CLL cell apoptosis [6]: induced CLL cell apoptosis
Annexin V binding to CLL cells ([6]; co-culture for 2-6 h): increased
Mean caspase-3 activity ([7]; 5 μM): 9741 arbitrary fluorescence units
Mean caspase-3 activity ([7]; 10 μM): 7474 arbitrary fluorescence units
Mean caspase-3 activity ([7]; 20 μM): 8074 arbitrary fluorescence units
CLL cell caspase-3 enzyme activity (time course) ([7]; co-culture for 4 to 19 h): increased
CLL cell caspase-3 enzyme activity (concentration dependence) ([7]; various concentrations, 4 h): dose-dependent increase
ED50 ranking, FIG. 10 ([3]; cytotoxicity for CLL cells in vitro): lowest ED50
EC50 [3, 13]: 7 ± 0.7 µM

NCCN(CCN)/[N+]([O-])=N/O [DETA-NO, (Z)-1-[N-(2-aminoethyl)-N-(2-ammonioethyl)amino]diazen-1-ium-1,2-diolate-NO]
Inhibition of leukemia cell and colony growth [8]: most potent inhibitor
Interaction of DETA-NO with fludarabine in killing CLL cells ([4]; combination with fludarabine): acted synergistically

NCCNCCN [DETA]
Effect on CLL cell apoptosis and death [4]: had no effects

CCSC(=N)Nc1ccc(C(F)(F)F)cc1 [ETPI, S-Ethyl-N-[4-(trifluoromethyl)phenyl]isothiourea HCl]
Kd [9]: 0.1 µM
IC50 [1]: 7.8 ± 2.5 µM
Kd [10]: 0.5 µM
IC50 [2]: 1500 ± 240 µM
EC50 ([3]; Homo sapiens, CLL cell): 129 ± 20 µM

N=C(N)NCCSSCCNC(=N)N [GED, Guanidinoethyldisulfide 2H2CO3]
IC50 [1]: 280 ± 80 µM
IC50 [2]: 50 ± 9.5 µM
EC50 ([3]; Homo sapiens, CLL cell): 317 ± 77 µM

CC(=N)NCCSCC[C@H](N)C(=O)O [GW274150, (S)-2-Amino-(1-iminoethylamino)-5-thioheptanoic acid]
IC50 [1]: 140 ± 15 µM
IC50 [2]: 1.8 ± 0.3 µM

COC(=O)[C@@H](N)CCCNC(N)=N[N+](=O)[O-] [L-NAME, N^G-Nitro-L-arginine-methyl ester HCl]
Kd [9]: 0.5 µM
IC50 [1]: 0.89 ± 0.06 µM
Kd [10]: 0.6 µM
IC50 [2]: 17 ± 1.5 µM
EC50 ([3]; Homo sapiens, CLL cell): 7220 ± 1300 µM

CC(=N)NCCCC[C@H](N)C(=O)O [L-NIL, L-N^6-(1-Iminoethyl)-lysine]
Kd [9]: 0.7 µM
IC50 [1]: 47 ± 1.2 µM
Kd [10]: 0.5 µM
IC50 [2]: 2.1 µM

CCCNC(=N)NCCC[C@H](N)C(=O)O [N-Propyl-L-arginine, N^5-[Imino(propylamino)methyl]-L-ornithine]
Kd [10]: 7 µM
IC50 [2]: 146 ± 36 µM

N=C(NCCC[C@H](N)CNCCN)N[N+](=O)[O-] [NAAANG, (4S)-N-(4-Amino-5[aminoethyl]aminopentyl)-N′-nitroguanidine 3TFA]
EC50 ([3]; Homo sapiens, CLL cell): 5230 ± 3200 µM

N=C(N)SCCCN [S-Aminopropyl ITU, S-(3-Aminopropyl)isothiourea 2HBr]
IC50 [1]: 3.8 ± 0.5 µM
IC50 [2]: 1.9 ± 0.2 µM
EC50 ([3]; Homo sapiens, CLL cell): 112 ± 45.5 µM

CCSC(=N)N [S-Ethyl ITU, S-Ethylisothiourea HBr]
IC50 [1]: 7.7 ± 1.8 µM
IC50 [2]: 1200 ± 290 µM

CSC(=N)N [S-Methyl ITU, S-methylisothiourea sulfate]
EC50 [3, 13]: 3080 ± 423 µM

[NH-]c1c[n+](N2CCOCC2)no1 [SIN-1]
Growth of HL-60 cells [11]: potently inhibited the growth
Development of marrow colonies [12]: inhibited development of marrow colonies

CCc1c2c(nc3ccc(O)cc13)-c1cc3c(c(=O)n1C2)COC(=O)[C@]3(O)CC [SN-38]
NO / DETA-NO interaction with the agent's activity on CLL cells [4]: did not enhance the activity

FC(F)(F)c1ccccc1-n1ccnc1 [TRIM, 1-(2-Trifluoromethylphenyl)imidazole]
EC50 ([3]; Homo sapiens, CLL cell): 421 ± 61 µM
Effect on anxiety and depression [5]: effective at reducing anxiety and depression
Side effects [5]: mild motor incoordination

CC1(C)N([O])C(c2ccc(C(=O)O)cc2)=[N+]([O-])C1(C)C [carboxy-PTIO]
Cytotoxicity for CLL cells (in words) [3]: not cytotoxic

O=C(O)CCCc1ccc(N(CCCl)CCCl)cc1 [chlorambucil]
NO / DETA-NO interaction with the agent's activity on CLL cells [4]: did not enhance the activity

COc1cccc2c1C(=O)c1c(O)c3c(c(O)c1C2=O)C[C@@](O)(C(=O)CO)C[C@@H]3O[C@H]1C[C@H](N)[C@H](O)[C@H](C)O1 [doxorubicin]
NO / DETA-NO interaction with the agent's activity on CLL cells [4]: did not enhance the activity

Nc1ccn([C@@H]2O[C@H](CO)[C@@H](O)C2(F)F)c(=O)n1 [gemcitabine]
NO / DETA-NO interaction with the agent's activity on CLL cells [4]: did not enhance the activity

C/C1=C2/[N-][C@H]([C@H](CC(N)=O)[C@@]2(C)CCC(=O)NC[C@@H](C)OP(=O)([O-])O[C@H]2[C@@H](O)[C@@H](n3cnc4cc(C)c(C)cc43)O[C@@H]2CO)[C@]2(C)N=C(/C(C)=C3N=C(/C=C4N=C1[C@@H](CCC(N)=O)C\4(C)C)[C@@H](CCC(N)=O)[C@]\3(C)CC(N)=O)[C@@H](CCC(N)=O)[C@]2(C)CC(N)=O.[Co+3].[OH-] [hydroxycobalamin]
Cytotoxicity for CLL cells (in words) [3]: not cytotoxic

Mercaptoethylguanidine sodium succinate [MEG]
EC50 [3, 13]: 181 ± 36.4 µM

S-nitrosoacetylpenicillamine [SNAP]
Growth of HL-60 cells [11]: potently inhibited the growth
Erythroid and myeloid colonies ([12]; isolated CD34+ cells): inhibited
Development of marrow colonies [12]: inhibited development of marrow colonies
